One may read the MIC as the smallest concentration in the dilution series that meets the test's criterion for growth inhibition. Lower therefore signals a more susceptible organism.

The results in this text go back to ChEMBL document CHEMBL3120161, “Antimycobacterial activity of nitrogen heterocycles derivatives: bipyridine derivatives. Part III” (Eur J Med Chem, 2014).

What all share (format): functional
Assay [1] concerns Mycobacterium tuberculosis. The assay is described as follows: Antimycobacterial activity against isoniazid-resistant Mycobacterium tuberculosis H37Rv SRI 1369 at MIC after 7 days by broth microdilution assay relative to control. (In general: Broth dilution looks for growth in wells or tubes with falling amounts of substance.)
For assay [2], the system named is Mycobacterium tuberculosis. The assay is described as follows: Antimycobacterial activity against rifampin-resistant Mycobacterium tuberculosis H37Rv SRI 1367 at MIC after 7 days by broth microdilution assay relative to control.
The test system of assay [3] is Mycobacterium tuberculosis. The assay is described as follows: Antimycobacterial activity against rifampin-resistant Mycobacterium tuberculosis H37Rv SRI 1367 after 7 days by broth microdilution assay. The conditions noted are these: H37Rv SRI 1367, 168 h.
For assay [4], the system named is Mycobacterium tuberculosis. Nature of the assay: Antimycobacterial activity against isoniazid-resistant Mycobacterium tuberculosis H37Rv SRI 1369 after 7 days by broth microdilution assay. The conditions noted are these: H37Rv SRI 1369, 168 h.
Assay [5] concerns Mycobacterium tuberculosis. Nature of the assay: Antimycobacterial activity against ofloxacin-resistant Mycobacterium tuberculosis H37Rv SRI 4000 after 7 days by broth microdilution assay. The conditions noted are these: H37Rv SRI 4000, 168 h.
Assay [6] deals with Mycobacterium tuberculosis. Nature of the assay: Antimycobacterial activity against ofloxacin-resistant Mycobacterium tuberculosis H37Rv SRI 4000 at MIC after 7 days by broth microdilution assay relative to control.

Converted amounts (≈) assume the structure as drawn.

Regarding `CCOC(=O)c1cc(C(=O)c2ccccc2)n2ccc(-c3cc[n+](CC(=O)c4ccc(OC)cc4)cc3)cc12.[Br-]`, the figures for the “inhibition (INH)” value in assay [1], in assay [2] and in assay [6] were 60%, 65% and 61%, respectively. Moreover, the values for the MIC in assay [3], in assay [4] and in assay [5] were 1.17 µg/mL, 4.69 µg/mL and 1.17 µg/mL, respectively.
Take `NNC(=O)c1ccncc1` [ISONIAZID]: the “inhibition (INH)” value in assay [2] is 92%. For the same compound, the MIC in assay [3] is 0.02 µg/mL (≈ 0.146 µM).
In the case of `CO[C@H]1/C=C/O[C@@]2(C)Oc3c(C)c(O)c4c(O)c(c(/C=N/N5CCN(C)CC5)c(O)c4c3C2=O)NC(=O)/C(C)=C\C=C\[C@H](C)[C@H](O)[C@@H](C)[C@@H](O)[C@@H](C)[C@H](OC(C)=O)[C@@H]1C` [RIFAMPIN], the “inhibition (INH)” value in assay [1] is listed as 56%; in assay [6], 80%. Also, the MIC in assay [4] is 0.02 µg/mL (≈ 0.0243 µM); in assay [5] it was 0.05 µg/mL (≈ 0.0608 µM).
